What was measured:
[1] = system: red blood cell; assay: Hemolysis assay; assay type: cell-based
Experimental: (§1) Methods: Cellular toxicity was determined by Lactate dehydrogenase concentration and WST-1 cell proliferation assay as well as hemolysis assay.

[2] = system: ypuA promoter; assay: ypuA promoter luciferase reporter gene assay; assay type: cell-based, Bacillus subitilis 1S34
Experimental: A specific bacterial reporter strain with the genetic background of Bacillus subitilis 1S34, carrying the promoter of the ypuA gene, fused to the firefly luciferase reporter gene, was used to identify cell envelope-related damage caused by treatment with antimicrobial compounds. Bacteria were cultured to an OD600 of 0.9 in LB broth with 5 μg/ml erythromycin at 37° C. and diluted to an OD600 of 0.02. Serial peptide dilutions (0.15-150 μM) were prepared in a microtiter plate and incubated with the adjusted bacterial suspension at 37° C. for 1 hour. Subsequently, citrate buffer (0.1 M, pH 5) containing 2 mM luciferin (Iris Biotech, Germany) was added and luminescence was measured using a microplate reader (Tecan, Switzerland).

[3] = system: several pathogenic bacteria; assay: Radial diffusion assay and MIC screening for antimicrobial activity; assay type: cell-based; details: radial diffusion assay and MIC determinations
Experimental: Methods: Log-phase bacteria were cultivated for up to 18 hours in TSB (TSB, Becton Dickinson, USA), washed and diluted to 4×10^6 CFU in 10 ml agar. Bacteria were incubated in 10 ml of 10 mM sodium phosphate, pH 7.4, containing 0.3 mg/ml of TSB powder and 1% (w/v) low EEO-agarose (AppliChem). Lipopeptides were pipetted into punched wells and diffused into the gel for 3 hours at 37° C. After that, a nutrient-rich gel with 6% TSB (w/v) and 1% agarose in 10 mM sodium phosphate buffer was poured on top of the first gel and incubated for up to 24 hours at 37° C. Then the diameter of inhibition zones was measured.
Clinical isolates of A. baumannii DSM30007, E. faecium DSM2918, K. pneumoniae DSM30104 and P. aeruginosa DSM1117 were provided by the Department for Laboratory Medicine at Robert-Bosch-Hospital Stuttgart, Germany. C. rodentium DSM16636 and E. coli DSM8695 were obtained from the Deutsche Sammlung von Mikroorganismen and Zellkultur GmbH Braunschweig, Germany. […]

[4] = system: C. rodentium strain ICC180; assay: Established gastrointestinal infection caused by C. rodentium; assay type: in vivo, mice; details: two doses of 250 μg orally 5 days post infection; content or tissue not specified
Experimental: All mice were euthanized by asphyxiation with CO2 at indicated time points. Intestinal tissues (small intestine, cecum, colon) were removed aseptically. To collect intestinal content, organs were flushed with PBS. Organs were opened longitudinally, cleaned thoroughly with PBS and weighted. Organs and content were homogenized in PBS using a Polytron homogenizer (Kinemtatica). Dilutions of homogenized samples were plated on LB plates containing 50 μg/ml kanamycin to determine CFUs.
Methods: Citrobacter rodentium infection. Bioluminescence expressing C. rodentium strain ICC180 was used for all infection experiments (Wiles et al., 2004). C. rodentium inoculae were prepared by culturing bacteria overnight at 37° C. in LB broth with 50 μg/mI kanamycin. Subsequently, the culture was diluted 1:100 in fresh medium, and sub-cultured for 4 hours at 37° C. in LB broth (Thiemann et al., 2017). Bacteria were washed twice in phosphate-buffered saline (PBS). Mice were orally inoculated with 10^8 CFU of C. rodentium diluted in 200 μl PBS. Weight of the mice was monitored and feces was collected for measurements of the pathogen burden. 5 days post infection mice received twice 250 μg peptide solved in 100 μl PBS or only PBS orally. The following day, mice were sacrificed to assess bacterial burden in the lumen and tissues of the cecum and the colon. […]

[5] = Cellular toxicity, WST-1 cell proliferation assay; assay type: cell-based
Experimental: as §1

[6] = Cellular toxicity, lactate dehydrogenase (LDH) assay; assay type: cell-based
Experimental: as §1

For Pam2-Glc-Suc-RGKAKCCK [Pam-1], the “red blood cell disruption (hemolysis)” value [1] was “minimal red blood cell disruption”, the “cell envelope damage (ypuA reporter)” value [2] was “little cell envelope damage” and the “antimicrobial activity, inhibition of bacterial growth of the tested strains” value [3] was “generally inactive”. The “CFU's of C. rodentium in cecum” value [4] was “did not reduce”, the “CFU's of C. rodentium in colon” value [4] was “did not reduce” and the “metabolic activity (WST-1 assay)” value [5] was “normal metabolic activity”. The “LDH activity (cytotoxicity)” value [6] was “no LDH activity”.

From US20230365639A1, “DEFENSIN FRAGMENT DERIVED LIPOPEPTIDES FOR TREATMENT OF DRUG-RESISTANT MICROORGANISMS” (priority 2020, published 2023)
